In patent US20240101572A1, “DIHYDROOXADIAZINONE COMPOUND AND PHARMACEUTICAL USE THEREOF” (Japan Tobacco Inc., priority 2022, published 2024):
pIC50: −log10 of the molar value.

Legend:
full-length human PLD1 = full-length human PLD1 (Homo sapiens (Human), UniProt Q13393); assay: Evaluation of human PLD1 enzyme inhibitory activity (Amplex Red / choline oxidase fluorescence); format: biochemical; settings: full-length human PLD1 enzyme; read-out: PLD1 IC50
In short: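 N-terminally FLAG-tagged full-length human PLD1 (1-1036), expressed in Expi293F and FLAG-purified, incubated with compound (5% DMSO final) and 1,2-diheptanoyl-sn-glycero-3-phosphocholine for 60 min at room temperature in HEPES pH 7.5 buffer. Released choline detected by Amplex Red/choline oxidase/HRP fluorescence.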

full-length human PLD2 = full-length human PLD2 (Homo sapiens (Human), UniProt O14939); assay: Evaluation of human PLD2 enzyme inhibitory activity (Amplex Red / choline oxidase fluorescence); format: biochemical; settings: full-length human PLD2 enzyme; read-out: PLD2 IC50
In short: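 Enzyme was N-terminal FLAG-tagged full-length human PLD2 (1-933), expressed in Expi293F cells and anti-FLAG purified. Compound (5% DMSO final) was incubated with enzyme (6 nmol/L solution) and 1,2-diheptanoyl-PC (6 mmol/L solution) in HEPES pH 7.5, KCl, EGTA, MgCl2, NP-40, BSA buffer for 60 min at room temperature. Choline was detected with Amplex Red/choline oxidase/HRP.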

Sequence of full-length human PLD1 (Q13393 other isoform, or with tags, fused parts or gaps): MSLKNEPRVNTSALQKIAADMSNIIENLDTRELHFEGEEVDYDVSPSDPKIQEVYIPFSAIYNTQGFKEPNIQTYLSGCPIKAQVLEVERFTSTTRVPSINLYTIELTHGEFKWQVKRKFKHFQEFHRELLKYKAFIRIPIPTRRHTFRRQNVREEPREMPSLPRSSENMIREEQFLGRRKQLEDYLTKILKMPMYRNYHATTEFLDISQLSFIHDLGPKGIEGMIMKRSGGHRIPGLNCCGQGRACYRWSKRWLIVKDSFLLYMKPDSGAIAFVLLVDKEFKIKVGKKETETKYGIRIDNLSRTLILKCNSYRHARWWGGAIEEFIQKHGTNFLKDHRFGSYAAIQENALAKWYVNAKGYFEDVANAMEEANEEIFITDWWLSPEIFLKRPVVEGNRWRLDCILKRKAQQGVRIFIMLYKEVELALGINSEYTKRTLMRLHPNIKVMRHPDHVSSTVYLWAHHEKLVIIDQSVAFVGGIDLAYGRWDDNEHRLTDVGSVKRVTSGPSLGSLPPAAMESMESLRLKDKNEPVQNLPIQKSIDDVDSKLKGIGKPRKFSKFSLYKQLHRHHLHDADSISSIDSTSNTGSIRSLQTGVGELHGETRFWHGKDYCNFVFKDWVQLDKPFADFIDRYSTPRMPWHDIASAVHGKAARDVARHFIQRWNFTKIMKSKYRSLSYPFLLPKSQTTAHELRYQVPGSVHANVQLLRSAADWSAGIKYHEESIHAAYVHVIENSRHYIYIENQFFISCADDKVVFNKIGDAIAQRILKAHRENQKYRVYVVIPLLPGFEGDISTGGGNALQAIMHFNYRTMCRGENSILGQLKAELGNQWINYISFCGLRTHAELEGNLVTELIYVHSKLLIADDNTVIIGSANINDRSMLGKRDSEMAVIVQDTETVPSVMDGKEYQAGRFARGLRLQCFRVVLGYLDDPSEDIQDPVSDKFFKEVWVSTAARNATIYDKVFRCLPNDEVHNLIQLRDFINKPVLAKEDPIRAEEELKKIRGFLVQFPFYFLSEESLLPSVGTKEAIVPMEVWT
Sequence of full-length human PLD2 (O14939 whole entry): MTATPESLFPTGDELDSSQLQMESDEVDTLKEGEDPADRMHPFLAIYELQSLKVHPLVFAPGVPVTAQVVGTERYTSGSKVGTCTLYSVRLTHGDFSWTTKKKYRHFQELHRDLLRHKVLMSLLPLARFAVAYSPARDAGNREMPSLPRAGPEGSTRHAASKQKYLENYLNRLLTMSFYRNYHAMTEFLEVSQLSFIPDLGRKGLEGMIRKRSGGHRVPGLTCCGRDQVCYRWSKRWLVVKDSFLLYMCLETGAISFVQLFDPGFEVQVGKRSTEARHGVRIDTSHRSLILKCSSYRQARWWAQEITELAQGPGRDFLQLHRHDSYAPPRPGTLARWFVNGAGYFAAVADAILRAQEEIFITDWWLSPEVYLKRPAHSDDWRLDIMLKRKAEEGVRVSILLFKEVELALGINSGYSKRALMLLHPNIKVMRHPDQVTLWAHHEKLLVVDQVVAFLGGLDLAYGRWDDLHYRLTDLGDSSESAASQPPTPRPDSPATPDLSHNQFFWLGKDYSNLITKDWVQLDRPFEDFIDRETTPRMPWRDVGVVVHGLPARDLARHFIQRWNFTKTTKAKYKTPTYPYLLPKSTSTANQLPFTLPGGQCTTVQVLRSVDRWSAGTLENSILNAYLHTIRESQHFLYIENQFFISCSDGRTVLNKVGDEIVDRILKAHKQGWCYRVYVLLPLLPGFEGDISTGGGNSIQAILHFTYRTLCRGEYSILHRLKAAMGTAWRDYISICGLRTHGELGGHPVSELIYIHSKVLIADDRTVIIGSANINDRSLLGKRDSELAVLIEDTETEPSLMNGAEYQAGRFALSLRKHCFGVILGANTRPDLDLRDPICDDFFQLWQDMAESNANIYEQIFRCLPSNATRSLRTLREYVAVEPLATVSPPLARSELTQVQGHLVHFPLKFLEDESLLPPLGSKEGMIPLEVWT

SMILES | pIC50 (full-length human PLD1) | pIC50 (full-length human PLD2)
CNC(=O)C(=O)N[C@@H](C)C[C@H]1CC[C@]2(CC1)OC(=O)NN=C2c1ccc(Br)cc1Br [Example 60] | > 8.00 | > 8.00
C[C@@H](C[C@H]1CC[C@]2(CC1)OC(=O)NN=C2c1ccc(F)cc1Br)NC(=O)c1ccccc1 [Example 40] | 7.89 | > 8.00
C[C@@H](C[C@H]1CC[C@]2(CC1)OC(=O)NN=C2c1ccc(F)cc1Br)NC(=O)c1cc2ccccc2o1 [Example 19] | 7.77 | 8.00
C[C@@H](C[C@H]1CC[C@]2(CC1)OC(=O)NN=C2c1ccc(S(C)(=O)=O)cc1Cl)NC(=O)c1cc(Cl)no1 [Example 52] | 7.68 | > 8.00
C[C@@H](C[C@H]1CC[C@]2(CC1)OC(=O)NN=C2c1ccc(S(C)(=O)=O)cc1)NC(=O)c1cc2cc(F)ccc2[nH]1 [Example 8] | 7.52 | 8.00
CNC(=O)C(=O)N[C@@H](C)C[C@H]1CC[C@]2(CC1)OC(=O)NN=C2c1cnc(N2CC(C)C2)cc1C [Example 182] | 7.72 | > 8.00
Cc1cc(C(=O)N[C@@H](C)C[C@H]2CC[C@]3(CC2)OC(=O)NN=C3c2cnc(Cl)cc2N2CCOCC2)[nH]n1 [Example 225] | 6.29 | 6.69
C[C@@H](C[C@H]1CC[C@]2(CC1)OC(=O)NN=C2c1ccc(C(C)(C)O)cc1Br)NC(=O)c1cc(Cl)no1 [Example 97] | > 8.00 | > 8.00
Cc1cc(C(=O)N[C@@H](C)C[C@H]2CC[C@]3(CC2)OC(=O)NN=C3c2ccc(C(=O)O)cc2C)[nH]n1 [Example 201] | 6.48 | 6.43
CNC(=O)C(=O)N[C@@H](C)C[C@H]1CC[C@]2(CC1)OC(=O)NN=C2c1ccc(C#N)cc1Cl [Example 175] | 7.68 | 7.82
CNC(=O)C(=O)N[C@@H](C)C[C@H]1CC[C@]2(CC1)OC(=O)NN=C2c1cc(OC)ncc1Br [Example 2-074] | 7.96 | > 8.00
COc1cc(C)c(C2=NNC(=O)O[C@]23CC[C@@H](C[C@H](C)NC(=O)OCc2ccccc2)CC3)cn1 [Example 262] | 7.82 | > 8.00
Cc1cc(N2CCOCC2)ccc1C1=NNC(=O)O[C@]12CC[C@@H](C[C@H](C)NC(=O)N1CCOCC1)CC2 [Example 200] | 6.99 | 7.09
C[C@@H](C[C@H]1CC[C@]2(CC1)OC(=O)NN=C2c1ccc(Br)cc1)NC(=O)c1cc2ccccc2o1 [Example 50] | 7.48 | 7.29
C[C@@H](CN1CCC2(CC1)OC(=O)NN=C2c1ccc(F)cc1Br)NC(=O)C(=O)NC1CC1 [Example 180] | 7.55 | 7.92
CNC(=O)C(=O)N[C@@H](C)C[C@H]1CC[C@]2(CC1)OC(=O)NN=C2c1ccc(Br)cc1C [Example 161] | 7.70 | 7.89
C[C@@H](C[C@H]1CC[C@]2(CC1)OC(=O)NN=C2c1ccc(OC(F)(F)F)cc1Br)NC(=O)NC1CC1 [Example 195] | 7.41 | 7.17
CNC(=O)C(=O)NC[C@H](C)N1CCC2(CC1)OC(=O)NN=C2c1ccc(C#N)cc1Br [Example 329] | 7.29 | > 8.00
Cc1cc(Br)ccc1C1=NNC(=O)O[C@]12CC[C@@H](C[C@H](C)NC(=O)C(=O)NC1CC1)CC2 [Example 209] | 7.74 | 7.74
CNC(=O)C(=O)N[C@@H](C)C[C@H]1CC[C@]2(CC1)OC(=O)NN=C2c1cccc(OC(F)F)c1Br [Example 306] | > 8.00 | > 8.00
CNC(=O)C(=O)N[C@@H](C)C[C@H]1CC[C@]2(CC1)OC(=O)NN=C2c1ccc(C)cc1C [Example 145] | 7.77 | > 8.00
[2H]C([2H])([C@H](C)NC(=O)C(=O)NC)N1CCC2(CC1)OC(=O)NN=C2c1ccc(F)cc1Br [Example 333] | 7.60 | > 8.00
CNC(=O)C(=O)N[C@@H](C)C[C@H]1CC[C@]2(CC1)OC(=O)NN=C2c1ccnn1C [Example 68] | 5.69 | 5.33
CC(C)C(=O)N[C@@H](C)C[C@H]1CC[C@]2(CC1)OC(=O)NN=C2c1ccc(F)cc1Br [Example 20] | 5.78 | 5.42
CNC(=O)C(=O)N[C@@H](C)C[C@H]1CC[C@]2(CC1)OC(=O)NN=C2c1cc(C#N)ccc1C [Example 287] | 7.89 | > 8.00
C[C@@H](CN1CCC2(CC1)OC(=O)NN=C2c1ccc(F)cc1Cl)NC(=O)c1cc2cc(F)ccc2o1 [Example 91] | 7.64 | 7.82
CNC(=O)C(=O)N[C@@H](C)C[C@H]1CC[C@]2(CC1)OC(=O)NN=C2c1cc(Cl)ccc1Cl [Example 314] | > 8.00 | > 8.00

SMILES | pIC50 (full-length human PLD1) | pIC50 (full-length human PLD2)
Cc1cc(C(=O)N[C@@H](C)C[C@H]2CC[C@]3(CC2)OC(=O)NN=C3c2cc(OC(F)(F)F)ccc2Br)[nH]n1 [Example 304] | > 8.00 | > 8.00
C[C@@H](C[C@H]1CC[C@]2(CC1)OC(=O)NN=C2c1cc(OCC(F)(F)F)ccc1Br)NC(=O)c1cnn(C)c1 [Example 305] | 7.82 | > 8.00
CNC(=O)C(=O)N[C@@H](C)C[C@H]1CC[C@]2(CC1)OC(=O)NN=C2c1cnc(N2C[C@@H]3C[C@H]2CO3)cc1Cl [Example 244] | 7.72 | > 8.00
Cc1cc(F)ccc1C1=NNC(=O)O[C@]12CC[C@@H](C[C@H](C)NC(=O)N1Cc3ccccc3C1)CC2 [Example 101] | > 8.00 | > 8.00
CNC(=O)C(=O)N[C@@H](C)C[C@]1(C#N)CC[C@@]2(CC1)OC(=O)NN=C2c1cc(C#N)ccc1Br [Example 2-040] | 7.68 | > 8.00
Cc1cc(C(=O)N[C@@H](C)CN2CCC3(CC2)OC(=O)NN=C3c2ccc(Cl)cc2C)[nH]n1 [Example 217] | 7.77 | > 8.00
Cc1cc(C(=O)N[C@H](C)CN2CCC3(CC2)OC(=O)NN=C3c2ccc(F)cc2Br)[nH]n1 [Example 2-012] | 5.69 | 6.61
CNC(=O)C(=O)N[C@@H](C)C[C@H]1CC[C@]2(CC1)OC(=O)NN=C2c1cnc(C(F)(F)F)cc1C [Example 174] | 7.38 | 7.77
CNC(=O)C(=O)N[C@@H](C)CN1CCC2(CC1)OC(=O)NN=C2c1ccc(F)cc1Br [Example 179, (S)—N^1-(1-(5-(2-bromo-4-fluorophenyl)-2-oxo-1-oxa-3,4,9-triazaspiro[5.5]undec-4-en-9-yl)propan-2-yl)-N^2-methyloxamide] | 7.60 | > 8.00
Cc1cc(C(=O)N[C@@H](C)C[C@H]2CC[C@]3(CC2)OC(=O)NN=C3c2cc(OC(F)F)ccc2C)[nH]n1 [Example 215] | > 8.00 | > 8.00
CNC(=O)C(=O)N[C@@H](C)CC1CCC2(CC1)OC(=O)NN=C2c1ccncc1Br (mixture of isomers) [Example 120] | 7.92 | 7.96
COc1cc(C)c(C2=NNC(=O)O[C@]23CC[C@@H](C[C@H](C)NC(=O)N2CCc4ccccc4C2)CC3)cn1 [Example 236] | 7.82 | > 8.00
C[C@@H](C[C@H]1CC[C@]2(CC1)OC(=O)NN=C2c1cc(C#N)ccc1Br)NC(=O)c1cc(C2CC2)n[nH]1 [Example 2-069] | > 8.00 | > 8.00
C[C@@H](C[C@H]1CC[C@]2(CC1)OC(=O)NN=C2c1cc(OC(F)(F)F)ccc1Br)NC(=O)c1cnn(C)c1 [Example 303] | 7.96 | > 8.00
CNC(=O)C(=O)N[C@@H](C)C[C@H]1CC[C@]2(CC1)OC(=O)NN=C2c1ccc(OC(F)(F)F)cc1Br [Example 80] | > 8.00 | > 8.00
CNC(=O)C(=O)N[C@@H](C)CN1CC2CC1CC21OC(=O)NN=C1c1ccc(F)cc1Br (mixture of isomers) [Example 2-005] | 6.36 | 7.46
CSc1ccc(C2=NNC(=O)OC23CCN(C[C@H](C)NC(=O)c2cc4cc(F)ccc4o2)CC3)c(Cl)c1 [Example 115] | 7.82 | > 8.00
Cc1cc(C(=O)N[C@@H](C)C[C@H]2CC[C@]3(CC2)OC(=O)NN=C3c2cnc(N3C[C@@H]4C[C@H]3CO4)cc2Cl)[nH]n1 [Example 240] | 7.89 | > 8.00
Cc1cc(C(=O)N[C@@H](C)CN2CCC3(CC2)OC(=O)NN=C3c2ccc(S(C)(=O)=O)cc2Cl)[nH]n1 [Example 128] | 6.73 | 7.22
Cc1ncccc1C1=NNC(=O)O[C@]12CC[C@@H](C[C@H](C)NC(=O)c1cc(Cl)no1)CC2 [Example 103] | 6.77 | 6.42
CNC(=O)C(=O)N[C@@H](C)C[C@H]1CC[C@]2(CC1)OC(=O)NN=C2c1ccc(C(C)(C)O)cc1Br [Example 96] | 7.74 | > 8.00
C[C@@H](CN1CCC2(CC1)OC(=O)NN=C2c1cc(C#N)ccc1Br)NC(=O)C1CCCO1 (mixture of isomers) [Example 2-048] | 6.19 | 5.99
CNC(=O)C(=O)N[C@@H](C)C[C@H]1CC[C@]2(CC1)OC(=O)NN=C2c1ccccc1C [Example 119] | 7.96 | > 8.00
CNC(=O)C(=O)N[C@@H](C)CN1CCC2(CC1)OC(=O)NN=C2c1c(F)cccc1Br [Example 2-018] | 7.66 | > 8.00
CNC(=O)C(=O)N[C@@H](C)CN1CC[C@]2(C[C@@H]1C)OC(=O)NN=C2c1ccc(C#N)cc1Cl [Example 280] | 6.83 | 6.50
CNC(=O)C(=O)N[C@@H](C)CN1CCC2(CC1)OC(=O)NN=C2c1cc(Br)c(F)cc1Cl [Example 2-015] | 7.59 | 7.92
